According to PubChem BioAssay (NCI):
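Step 1: Grow cells in 96-well plates. Step 2: Expose to compound for 48 hours at 5 concentrations. Step 3: Interpolate endpoints linearly; if unreached, use highest concentration. The concentration for full growth arrest is given as TGI.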

Legend:
Assay in all cases: inhibition of tumour cell growth, NCI panel, 48 h
786-0 renal = tested on: 786-0 renal
A498 renal = tested on: A498 renal
A549 NSCLC = tested on: A549 NSCLC
ACHN renal = tested on: ACHN renal
BT-549 breast = tested on: BT-549 breast
CAKI-1 renal = tested on: CAKI-1 renal
COLO 205 colon = tested on: COLO 205 colon
DU-145 prostate = tested on: DU-145 prostate
EKVX NSCLC = tested on: EKVX NSCLC
HCC-2998 colon = tested on: HCC-2998 colon
HCT-116 colon = tested on: HCT-116 colon
HCT-15 colon = tested on: HCT-15 colon
HL-60(TB) leukemia = tested on: HL-60(TB) leukemia
HOP-62 NSCLC = tested on: HOP-62 NSCLC
HOP-92 NSCLC = tested on: HOP-92 NSCLC
HS 578T breast = tested on: HS 578T breast
HT29 colon = tested on: HT29 colon
IGROV1 ovarian = tested on: IGROV1 ovarian
K-562 leukemia = tested on: K-562 leukemia
KM12 colon = tested on: KM12 colon
LOX IMVI melanoma = tested on: LOX IMVI melanoma
M14 melanoma = tested on: M14 melanoma
MALME-3M melanoma = tested on: MALME-3M melanoma
MCF7 breast = tested on: MCF7 breast
MDA-MB-231 breast = tested on: MDA-MB-231 breast
MDA-MB-435 = tested on: MDA-MB-435
MDA-N = tested on: MDA-N
MOLT-4 leukemia = tested on: MOLT-4 leukemia
NCI-H226 lung = tested on: NCI-H226 lung
NCI-H23 lung = tested on: NCI-H23 lung
NCI-H460 lung = tested on: NCI-H460 lung
NCI-H522 lung = tested on: NCI-H522 lung
NCI/ADR-RES ovarian = tested on: NCI/ADR-RES ovarian
OVCAR-3 ovarian = tested on: OVCAR-3 ovarian
OVCAR-4 ovarian = tested on: OVCAR-4 ovarian
OVCAR-5 ovarian = tested on: OVCAR-5 ovarian
OVCAR-8 ovarian = tested on: OVCAR-8 ovarian
PC-3 prostate = tested on: PC-3 prostate
RPMI-8226 leukemia = tested on: RPMI-8226 leukemia
RXF 393 renal = tested on: RXF 393 renal
SF-268 CNS = tested on: SF-268 CNS
SF-295 CNS = tested on: SF-295 CNS
SF-539 CNS = tested on: SF-539 CNS
SK-MEL-2 melanoma = tested on: SK-MEL-2 melanoma
SK-MEL-28 melanoma = tested on: SK-MEL-28 melanoma
SK-MEL-5 melanoma = tested on: SK-MEL-5 melanoma
SK-OV-3 ovarian = tested on: SK-OV-3 ovarian
SN12C renal = tested on: SN12C renal
SNB-19 CNS = tested on: SNB-19 CNS
SNB-75 CNS = tested on: SNB-75 CNS
SR leukemia = tested on: SR leukemia
SW-620 colon = tested on: SW-620 colon
T-47D breast = tested on: T-47D breast
TK-10 renal = tested on: TK-10 renal
U251 CNS = tested on: U251 CNS
UACC-257 melanoma = tested on: UACC-257 melanoma
UACC-62 melanoma = tested on: UACC-62 melanoma
UO-31 renal = tested on: UO-31 renal
CCRF-CEM leukemia = tested on: CCRF-CEM leukemia

With Oc1ccc(-c2nc3ccc4ccccc4c3c3c2CCCC3)c(O)c1 the TGI (786-0 renal) was 24 µM, the TGI (A498 renal) was > 100 µM and the TGI (A549 NSCLC) was > 100 µM. For the same compound, the TGI (ACHN renal) was 85 µM, the TGI (BT-549 breast) was > 100 µM and the TGI (CAKI-1 renal) was > 100 µM. The TGI (COLO 205 colon) was 23.9 µM, the TGI (DU-145 prostate) was > 100 µM and the TGI (EKVX NSCLC) was > 100 µM. For the same compound, the TGI (HCC-2998 colon) was > 100 µM, the TGI (HCT-116 colon) was 22.6 µM and the TGI (HCT-15 colon) was > 100 µM. The TGI (HL-60(TB) leukemia) was > 100 µM, the TGI (HOP-62 NSCLC) was > 100 µM and the TGI (HOP-92 NSCLC) was > 100 µM. The TGI (HS 578T breast) was 88.9 µM, the TGI (HT29 colon) was 25.4 µM and the TGI (IGROV1 ovarian) was > 56.5 µM. The TGI (K-562 leukemia) was > 100 µM, the TGI (KM12 colon) was > 100 µM and the TGI (LOX IMVI melanoma) was > 100 µM. For the same compound, the TGI (M14 melanoma) was 35.9 µM, the TGI (MALME-3M melanoma) was > 59.1 µM and the TGI (MCF7 breast) was > 69.8 µM. For the same compound, the TGI (MDA-MB-231 breast) was 37 µM, the TGI (MDA-MB-435) was > 63.7 µM and the TGI (MDA-N) was 39.3 µM. For the same compound, the TGI (MOLT-4 leukemia) was > 100 µM, the TGI (NCI-H226 lung) was > 100 µM and the TGI (NCI-H23 lung) was > 100 µM. The TGI (NCI-H460 lung) was > 100 µM, the TGI (NCI-H522 lung) was 41.1 µM and the TGI (NCI/ADR-RES ovarian) was > 100 µM. For the same compound, the TGI (OVCAR-3 ovarian) was > 100 µM, the TGI (OVCAR-4 ovarian) was > 100 µM and the TGI (OVCAR-5 ovarian) was 49.1 µM. For the same compound, the TGI (OVCAR-8 ovarian) was > 68.1 µM, the TGI (PC-3 prostate) was > 100 µM and the TGI (RPMI-8226 leukemia) was > 100 µM. For the same compound, the TGI (RXF 393 renal) was > 84.3 µM, the TGI (SF-268 CNS) was > 72 µM and the TGI (SF-295 CNS) was > 74.1 µM. The TGI (SF-539 CNS) was > 73.2 µM, the TGI (SK-MEL-2 melanoma) was 37.6 µM and the TGI (SK-MEL-28 melanoma) was > 50.6 µM. For the same compound, the TGI (SK-MEL-5 melanoma) was 27.1 µM, the TGI (SK-OV-3 ovarian) was > 100 µM and the TGI (SN12C renal) was 32.8 µM. For the same compound, the TGI (SNB-19 CNS) was 71.2 µM, the TGI (SNB-75 CNS) was > 100 µM and the TGI (SR leukemia) was > 100 µM. For the same compound, the TGI (SW-620 colon) was > 68 µM, the TGI (T-47D breast) was > 100 µM and the TGI (TK-10 renal) was 97.9 µM. For the same compound, the TGI (U251 CNS) was > 40.5 µM, the TGI (UACC-257 melanoma) was > 100 µM and the TGI (UACC-62 melanoma) was > 50.6 µM. The TGI (UO-31 renal) was > 100 µM.

With COc1ccc2c(c1)C(N)=C(c1ccccc1OC)C2=O the TGI (786-0 renal) was > 100 µM, the TGI (A498 renal) was > 100 µM and the TGI (ACHN renal) was > 100 µM. For the same compound, the TGI (BT-549 breast) was > 100 µM, the TGI (CAKI-1 renal) was > 100 µM and the TGI (CCRF-CEM leukemia) was > 100 µM. For the same compound, the TGI (COLO 205 colon) was > 100 µM, the TGI (DU-145 prostate) was > 100 µM and the TGI (EKVX NSCLC) was > 100 µM. For the same compound, the TGI (HCC-2998 colon) was > 100 µM, the TGI (HCT-116 colon) was > 100 µM and the TGI (HCT-15 colon) was > 100 µM. For the same compound, the TGI (HL-60(TB) leukemia) was > 100 µM, the TGI (HOP-62 NSCLC) was > 100 µM and the TGI (HOP-92 NSCLC) was > 100 µM. For the same compound, the TGI (HS 578T breast) was > 100 µM, the TGI (HT29 colon) was > 100 µM and the TGI (IGROV1 ovarian) was > 100 µM. For the same compound, the TGI (K-562 leukemia) was > 100 µM, the TGI (KM12 colon) was > 100 µM and the TGI (LOX IMVI melanoma) was > 100 µM. The TGI (M14 melanoma) was > 100 µM, the TGI (MALME-3M melanoma) was > 100 µM and the TGI (MCF7 breast) was > 100 µM. The TGI (MDA-MB-231 breast) was > 100 µM, the TGI (MDA-MB-435) was > 100 µM and the TGI (MDA-N) was > 100 µM. For the same compound, the TGI (MOLT-4 leukemia) was > 100 µM, the TGI (NCI-H226 lung) was > 100 µM and the TGI (NCI-H23 lung) was > 100 µM. The TGI (NCI-H460 lung) was > 100 µM, the TGI (NCI/ADR-RES ovarian) was > 100 µM and the TGI (OVCAR-3 ovarian) was > 100 µM. For the same compound, the TGI (OVCAR-4 ovarian) was > 100 µM, the TGI (OVCAR-5 ovarian) was > 100 µM and the TGI (OVCAR-8 ovarian) was > 100 µM. For the same compound, the TGI (PC-3 prostate) was > 100 µM, the TGI (RPMI-8226 leukemia) was > 100 µM and the TGI (RXF 393 renal) was > 100 µM. For the same compound, the TGI (SF-268 CNS) was > 100 µM, the TGI (SF-295 CNS) was > 100 µM and the TGI (SF-539 CNS) was > 100 µM. The TGI (SK-MEL-2 melanoma) was > 100 µM, the TGI (SK-MEL-28 melanoma) was > 100 µM and the TGI (SK-OV-3 ovarian) was > 100 µM. The TGI (SN12C renal) was > 100 µM, the TGI (SNB-19 CNS) was > 100 µM and the TGI (SNB-75 CNS) was > 100 µM. For the same compound, the TGI (SR leukemia) was > 100 µM, the TGI (SW-620 colon) was > 100 µM and the TGI (T-47D breast) was > 100 µM. The TGI (TK-10 renal) was > 100 µM, the TGI (U251 CNS) was > 100 µM and the TGI (UACC-257 melanoma) was > 100 µM. The TGI (UACC-62 melanoma) was > 100 µM and the TGI (UO-31 renal) was > 100 µM.
